Series [1] relates to 786-O cells. Kind of series: Cellular toxicity at IC50 concentrations. It counts as cell-based, human.
The test system of series [2] is iron (Fe-(EDHB)3 complex). Kind of series: In vitro iron competition assay. Conditions: 0-200 micromolars, absorbance at 500 nm. As for the experimental part:
This assay was performed similarly to that described previously (Wang et al., 2002). Briefly, displacement of iron from ethyl-3,4-dihydroxybenzoate (EDHB) complex was measured as a decrease in absorbance at 500 nm. Ferric iron, prepared as a 5 mM stock solution of FeC13 in 100 mM sodium citrate, was diluted to 25 μM in the presence of 750 μM EDHB. 1 ml aliquots of this solution were then mixed with 0, 25, 50, 100 or 200 micromolars of compounds 40, 41, 76, and 77 as well as EDTA and DFO for controls. […] The self absorbance of compound 41 in a matched solution lacking Fe-(EDHB)3 was subtracted from the A500 value obtained in the presence of the Fe-(EDHB)3 complex.
The inventors next directly tested whether the compounds bind iron by performing a competition assay in which the displacement of iron from ethyl-3,4-dihydroxybenzoate (EDHB), a weakly chelating ester, was measured as a decrease in absorbance at 500 nm. […] In addition, the inventors utilized the Connectivity Map to look for similarities between the induced gene expression signatures of low and high dose DFO and compound treated cells (Lamb et al., 2006). Using this bioinformatic approach, the inventors discovered no significant similarity between the gene expression profile of the compounds and low (chelating) DFO dose, while there was a negative correlation between compound effect and high (HIF stabilizing) DFO dose (see FIG. 13).

Series [3] deals with HIF-2a mRNA. Kind of series: qRT-PCR for HIF-2a mRNA expression. It counts as cell-based, human. Particulars: 786-O derived cells, qRT-PCR normalized to B2M. As to the method: ID NO: 1) and [NT] […] ID NO: 3) and [NT] ID NO: 4) for […] ID NO: 5) and [NT] ID NO: 6) for Transferrin Receptor 1 ([…] ID NO: 7) and [NT] ID NO: 8) for […] ID NO: 9) and [NT] ID NO: 10) for […] ID NO. 11) and [NT] ID NO: 12) for EGLN3. […] ID NO: 13) and [NT] ID NO: 14). Quantitative RT-PCR was performed on total RNA harvested from 7H4 cells treated with medium only, DMSO or compound. […] To test whether the compounds alter HIF-2a stability, the inventors assessed protein half-life following the addition of cycloheximide in compound versus DMSO-only treated cells (see FIG. 10).
Background: In qPCR the cycle at which signal appears reflects the starting amount.

Series [4] concerns the target T1, IRP1 binding to HIF-2a IRE (Homo sapiens, UniProt P21399).
T1 sequence (P21399 1-889): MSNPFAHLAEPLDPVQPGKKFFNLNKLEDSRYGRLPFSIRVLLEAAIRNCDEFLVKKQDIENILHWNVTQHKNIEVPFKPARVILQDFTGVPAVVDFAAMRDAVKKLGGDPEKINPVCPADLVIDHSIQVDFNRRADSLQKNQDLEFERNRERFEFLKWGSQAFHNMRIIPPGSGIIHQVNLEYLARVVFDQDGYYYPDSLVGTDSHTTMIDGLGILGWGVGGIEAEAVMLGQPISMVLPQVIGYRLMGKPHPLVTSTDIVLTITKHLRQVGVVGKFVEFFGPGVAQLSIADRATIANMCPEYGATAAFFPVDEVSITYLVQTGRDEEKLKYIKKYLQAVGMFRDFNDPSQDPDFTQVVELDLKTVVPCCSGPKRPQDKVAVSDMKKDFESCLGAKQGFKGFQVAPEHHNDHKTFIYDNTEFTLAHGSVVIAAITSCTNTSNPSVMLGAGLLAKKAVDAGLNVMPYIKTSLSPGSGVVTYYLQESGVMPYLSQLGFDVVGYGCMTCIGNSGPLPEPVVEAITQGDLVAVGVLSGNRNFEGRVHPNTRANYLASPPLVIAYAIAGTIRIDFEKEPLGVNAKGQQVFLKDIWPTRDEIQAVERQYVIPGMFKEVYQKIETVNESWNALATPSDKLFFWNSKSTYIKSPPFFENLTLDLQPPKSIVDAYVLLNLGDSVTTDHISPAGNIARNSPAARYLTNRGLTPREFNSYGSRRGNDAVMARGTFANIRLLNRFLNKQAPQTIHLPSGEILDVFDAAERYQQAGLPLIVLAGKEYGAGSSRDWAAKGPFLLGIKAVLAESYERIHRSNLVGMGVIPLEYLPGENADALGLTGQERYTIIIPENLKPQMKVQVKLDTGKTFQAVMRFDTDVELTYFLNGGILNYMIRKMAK
Kind of series: Electrophoretic mobility shift assay, HIF-2a IRE probe. Particulars: for binding of IRP1 to HIF-2a IRE probe: lysates of treated 786-O cells, EMSA. As for the experimental part: EMSAs were performed as described previously (Fillebeen et al., 2003). Briefly, 50 μg lysate from 786-O cells treated with medium only, DMSO, or compounds were incubated with 25,000 cpm wild-type or mutant radiolabeled HIF-2a IRE probe for 20 minutes at room temperature before loading onto non-denaturing acrylamide gels. Supershifts were performed identically, save that 0.2 μg control, IRP1 or IRP2 antibodies were also added. Total protein content was estimated by Bradford Assay (BioRad, 500-0006), and even loading for all experiments was confirmed by Western blot for B-Actin.
The inventors next tested the effect of hypoxia on the binding of IRP1 to the HIF-2a wild-type IRE. […] This is due to decreased mRNA binding, as western blots confirm that neither compound application nor hypoxia affects IRP1 protein expression. The involvement of IRP1 was further confirmed with super-shifting experiments with IRP1 antibody (FIG. 7C). No supershifted bands were observed using IRP2 antibody.
Inventors discovered that compound 76 increased the residual amount of IRP1 bound to the HIF-2a IRE in hypoxia, although not to the same extent as that observed in normoxic cells. […] Lastly, to further investigate the involvement of IRP2 in HIF-2a IRE, the inventors compared side by side IRP2 binding to HIF-2a and Ferritin-L IRE in 786-O cells, in conditions of normoxia or hypoxia and after treatment with compound 76 or DFO (FIG. 7E). While IRP2 binding was clearly detected on Ferritin IRE, the inventors were not able to detect measurable IRP2 binding on HIF-2a IRE.
To examine this latter possibility the inventors performed an electophoretic mobility shift assay (EMSA) using a radiolabeled wild type or mutant IRE probe to determine if IRP1 binding is increased (FIG. 18A). […] This shifted band can be supershifted with IRP1 but not IRP2 antibodies (data not shown). To further examine the ability of PGJ2 to enhance IRP1 activity under conditions of normoxia and hypoxia the inventors tested its effect at various concentrations of ambient oxygen, corresponding to physiologic or extreme conditions of tissue oxygenation.
(Mobility shift assays separate free from complexed probe on a gel.)

We go through five compounds from US10881656B2, “HIF inhibitors and use thereof” (The General Hospital Corporation, priority 2008, dated 2021).

Turning to `C/C(=C\c1ccccc1)C(=O)CCN(C)C.Cl` [Compound 40, 5-(dimethylamino)-2-methyl-1-phenyl-1-penten-3-one hydrochloride], the cellular toxicity entry in series [1] is “comparative lack of cellular toxicity at IC50 concentrations”. Moreover, the “displacement of iron from EDHB complex (iron chelation)” value (shortened to “displacement of iron from EDHB complex”) in series [2] was “are not iron chelators”. For the same compound, in series [3], the “HIF-2a mRNA expression” value is listed as “do not effect HIF-2a mRNA expression”. Besides, the “binding of IRP1 to HIF-2a IRE probe” value in series [4] was “enhance binding of IRP1 to the HIF-2a IRE”.
As for `CC1(C)CC(=O)C=C(Sc2ccc(C#N)cc2[N+](=O)[O-])S1` [Compound 77, 4-[(2,2-dimethyl-4-oxo-3,4-dihydro-2H-thiin-6-yl)thio]-3-nitrobenzonitrile], in series [1], the cellular toxicity result is on record as “comparative lack of cellular toxicity at IC50 concentrations”. The “displacement of iron from EDHB complex” value in series [2] is “are not iron chelators”. Besides, the “HIF-2a mRNA expression” value in series [3] is given as “do not effect HIF-2a mRNA expression”. Further, the “binding of IRP1 to HIF-2a IRE probe” value in series [4] was “enhance binding of IRP1 to the HIF-2a IRE”.
As for `COC(=O)c1sccc1N/N=C(/C#N)S(C)(=O)=O` [Compound 76, methyl 3-{2-[cyano(methylsulfonyl)methylene] hydrazino}thiophene-2-carboxylate], in series [1], the cellular toxicity entry is recorded as “comparative lack of cellular toxicity at IC50 concentrations”. In series [2], the “displacement of iron from EDHB complex” value is “are not iron chelators”. Besides, the “HIF-2a mRNA expression” value in series [3] is given as “do not effect HIF-2a mRNA expression”. In addition, the “binding of IRP1 to wild-type HIF-2a probe in hypoxia” value in series [4] (786-O cells, 24 hours hypoxia) is “enhances binding of IRP1 to wild-type HIF-2a probe in hypoxia”. Also, the “binding of IRP1 to HIF-2a IRE probe” value in series [4] is given as “enhance binding of IRP1 to the HIF-2a IRE”.
In the case of `CCCCC/C=C/C=C1/C(=O)C=C[C@@H]1C/C=C\CCCC(=O)O` [PGJ2, 15-deoxy-Δ^12,14-prostaglandin J2], the “displacement of iron from EDHB complex” value in series [2] is “not an iron chelator”. Further, the “HIF-2a mRNA expression” value in series [3] is “no concomitant decrease in HIF2a mRNA expression”. Moreover, in series [4], the “binding of IRP1 to HIF-2a IRE probe” value was “increased the specific IRE binding activity of cell lysates under conditions of both normoxia and hypoxia”.
Take `COc1ccc(O)c(/C=C/C(=O)c2c(O)cc(C)oc2=O)c1` [Compound 41, 4-hydroxy-3-[3-(2-hydroxy-5-meoxyphenyl)acryloyl]-6-methyl-2H-pyran-2-one]: the cellular toxicity result in series [1] is listed as “comparative lack of cellular toxicity at IC50 concentrations”. For the same compound, the “displacement of iron from EDHB complex” value in series [2] is “are not iron chelators”. For the same compound, the “HIF-2a mRNA expression” value in series [3] was “do not effect HIF-2a mRNA expression”. Further, the “binding of IRP1 to HIF-2a IRE probe” value in series [4] is “enhance binding of IRP1 to the HIF-2a IRE”.
